These results are taken from US7745492B2, “Carboxamido opioid compounds” (Janssen Pharmaceutical, priority 2004, dated 2010).

The subject of one series is male Sprague-Dawley rats. Put plainly: Rat CFA radiant heat model of inflammatory pain. Type of series: in vivo. The following applies: dosed orally 24 h after intraplantar CFA. As to the method: Rat CFA Radiant Heat Model of Inflammatory Pain
Intraplantar injection of Complete Freund's Adjuvant (CFA) in rodents results in a strong, long-lasting inflammatory reaction, characterized by a chronic and pronounced hyperalgesia to both thermal and mechanical stimuli. These effects peak between 24-72 h following injection, and can last for several days to a few weeks. To assess the ability of compounds to reverse thermal hyperalgesia, male Sprague-Dawley rats (200-350 g) were given an intraplantar injection of CFA (1:1 CFA:saline, 100 μL) into their left hindpaw. Following a 24-h incubation period, response latencies on the Radiant Heat Paw Stimulator (RH) were obtained and compared to baseline (pre-CFA) latencies. The RH device automatically registered lifting of the paw from the surface of the glass. […] Following the post CFA latency assessment, rats were dosed orally (2.5 mL/kg) with test compound or vehicle (hydroxypropylmethylcellulose, HPMC). Percent reversal of hyperalgesia was calculated for each animal as (Treatment Response−postCFA Response)/(preCFA Response−postCFA Response)×100. Therefore, a return to normal pre-CFA thresholds was defined as 100% efficacy, whereas no change from post-CFA thresholds was 0% efficacy. Average % reversal of hyperalgesia was then calculated for each treatment group (n=6-8 rats/group). […]

Series [1] deals with recombinant human P450 3A4 (Homo sapiens, UniProt P08684). Put plainly: Recombinant human P450 isoform inhibition, 3A4. Type of series: in vitro ADME. As to the method:
In a study using recombinant human P450 isoforms, the compound was only a weak inhibitor (IC50>10 μM) of all isoforms tested, 3A4, 2D6, 2C9, 2C19, and 1A2.

The next series deals with Male Sprague Dawley rats. Put plainly: Spinal nerve ligation (SNL) model of neuropathic pain, mechanical allodynia (Von Frey). The following applies: rat, at 2 h. Type of series: in vivo. The protocol: Spinal Nerve Ligation (SNL) Model of Neuropathic Pain
Male Sprague Dawley rats weighing 145 to 165 g (approximately 6 weeks of age) were obtained from Harlan (Indianapolis, Ind.). Food and water were provided ad lib and a 12 h light and 12 h dark cycle were maintained. Animals were group housed under specific pathogen-free, barrier maintained environment and were allowed to acclimate for no less than 1 week. Following surgery, animals were housed individually in solid bottom polycarbonate cages with automatic watering devices at 22° C. and a relative humidity of 60%. All animals received Harland Tekland Diet # 8604.
Anesthesia was induced using isoflurane (IsoVet™) inhalant in an induction chamber (3-5% in 2 L/min of O2). Once recumbent, the animal was removed and placed into a nose cone which delivered inhalant isoflurane (0.5-2.5% at 2 L/min Of O2). The dorsal pelvic area was shaved and scrubbed aseptically with chlorhexidine scrub, 70% alcohol, and a 5% chlorhexidine solution. The animal was held in ventral recumbency on a heating pad, and the surgical procedure described by Kim and Chung (1992) was performed. The left paraspinal muscles were separated from the spinous processes at the level of Lumbar 4 to Sacral 2 (L4-S2). Once the musculature was retracted, the L6 transverse process was removed using a small rongeur. L4 and L5 spinal nerves could then be visualized. L5 was then isolated and ligated using 6-0 silk suture material. Warm saline and a dose of long-acting antibiotic was administered immediately post-op before recovery form anesthesia.
At least one week following surgery, animals were individually placed in a Lucite testing chamber with a wire mesh bottom. Mechanical (tactile) allodynia was measured by recording the pressure at which the affected paw was withdrawn from graded stimuli (Von Frey hairs ranging from 4.0 to 148.1 mN equivalent to 0.25 to 15 g of pressure) applied to the plantar surface of the paw (between the footpads) according to the procedure of Chaplan et. al (1994) in order to calculate paw withdrawal threshold (PWT). Normal rats can withstand at least 15 g of pressure without responding. SNL rats can respond to as little as 0.25 g of pressure. Rats were included in this study only if their PWT was below 4.0 g.
Animals were used for compound testing between 2 weeks and 8 weeks post-operatively. Animals were always pre-tested for baseline withdrawal threshold on the day of testing. Following a 16 h fast, PWT was evaluated at 30 min, 1 h, 2 h, and 4 h post-dosing. Dose-response studies were conducted at the time of peak effect. Studies were conducted in a blinded manner.
Data were normalized and results were presented as % MPE (maximum possible effect) of the drug.

In another series the target is T1, delta opioid receptor (Rattus norvegicus, UniProt P33533).
T1 construct: from tissue; host or cells: rat forebrain membrane (particulate) preparation
Put plainly: Rat brain delta opioid receptor binding assay ([3H]DPDPE). The note with it: rat forebrain membranes, 25° C. As to the method:
Rat Brain Mu and Delta Opioid Receptor Binding Assay
Male, Wistar rats (150-250 g, VAF, Charles River, Kingston, N.Y.) were killed by cervical dislocation and their brains removed and placed immediately in ice cold Tris HCl buffer (50 mM, pH 7.4). The forebrains were separated from the remainder of the brain by a coronal transection, beginning dorsally at the colliculi and passing ventrally through the midbrain-pontine junction. After dissection, the forebrains were homogenized in Tris buffer in a Teflon®-glass homogenizer. The homogenate was diluted to a concentration of 1 g of forebrain tissue per 100 mL Tris buffer and centrifuged at 39,000×G for 10 min. The pellet was resuspended in the same volume of Tris buffer with several brief pulses from a Polytron homogenizer. This particulate preparation was used for the opioid receptor binding assays. […] The tubes and filters were rinsed three times with 4 mL of 10 mM HEPES (pH 7.4) and the radioactivity associated with the filter circles determined using Formula 989 scintillation fluid (New England Nuclear, Boston, Mass.) in a scintillation counter.
The data were used to calculate a Ki value, using GraphPad Prism.

Series [2] in a line: Metabolic stability in mouse liver microsomes. The following applies: 10 min incubation. It counts as in vitro ADME. The protocol:
(§1) The metabolic stability of Compound 3 was investigated using several approaches. The compound was incubated with liver microsomes from mouse, rat, dog and human and the percent of compound remaining after ten min quantified. The compound was metabolically robust in all species tested.

Series [3] is described as follows: Metabolic stability in rat liver microsomes. Type of series: in vitro ADME. The following applies: 10 min incubation. As to the method: as §1
In general terms: Liver microsomes are vesicles of endoplasmic reticulum, rich in cytochrome P450 enzymes.

T1 sequence (P33533 whole entry): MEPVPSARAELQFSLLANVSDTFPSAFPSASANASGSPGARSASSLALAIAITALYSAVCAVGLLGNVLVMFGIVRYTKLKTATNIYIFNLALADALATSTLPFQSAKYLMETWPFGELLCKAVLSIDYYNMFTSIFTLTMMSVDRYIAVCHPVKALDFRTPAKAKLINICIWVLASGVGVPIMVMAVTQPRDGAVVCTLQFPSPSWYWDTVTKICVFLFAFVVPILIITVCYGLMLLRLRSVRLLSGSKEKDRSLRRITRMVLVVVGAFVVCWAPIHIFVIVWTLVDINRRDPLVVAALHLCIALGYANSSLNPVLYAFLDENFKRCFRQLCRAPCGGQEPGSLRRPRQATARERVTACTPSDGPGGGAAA
recombinant human P450 3A4, sequence (P08684 whole entry, canonical isoform): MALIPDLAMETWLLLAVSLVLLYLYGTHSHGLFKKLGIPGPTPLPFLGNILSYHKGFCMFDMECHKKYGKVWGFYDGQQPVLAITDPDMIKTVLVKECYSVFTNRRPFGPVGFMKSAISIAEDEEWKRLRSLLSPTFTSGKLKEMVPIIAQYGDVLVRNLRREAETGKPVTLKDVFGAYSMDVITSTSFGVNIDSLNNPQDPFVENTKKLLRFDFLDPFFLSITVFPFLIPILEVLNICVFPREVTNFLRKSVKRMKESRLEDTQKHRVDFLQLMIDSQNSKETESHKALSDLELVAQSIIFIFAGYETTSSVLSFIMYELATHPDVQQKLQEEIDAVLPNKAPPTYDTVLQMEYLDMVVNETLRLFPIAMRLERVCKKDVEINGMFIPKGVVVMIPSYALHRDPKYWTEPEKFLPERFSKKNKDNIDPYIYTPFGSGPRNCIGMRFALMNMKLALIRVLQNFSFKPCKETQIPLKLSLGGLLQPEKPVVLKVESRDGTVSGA

One may read the IC50 as the concentration needed to halve the response being measured. In general, ED50 refers to the dose at which the effect has come halfway, by size or by number of responders. Higher therefore signals weaker potency. The Ki is a measure of affinity in units of concentration, obtained from inhibition or displacement. A low value points to higher affinity. For `CN(C)C[C@H]1CCCC[C@]1(O)c1cccc(C(N)=O)c1` (single isomer, unassigned) [Cpd 3], in the series with male Sprague-Dawley rats, the “Antihyperalgesic effect (reversal of thermal hyperalgesia)” value was “antihyperalgesic”. Further, in series [1], the half-maximal inhibitory concentration (IC50) is > 10 µM. Also, it took a dose of 17 mg/kg to reach the 50% effect level in the series with Male Sprague Dawley rats (ED50). Also, the inhibition constant Ki at delta opioid receptor amounted to 3.14 µM. In addition, the “% remaining after 10 min” value in series [2] is reported as 88.2%; in series [3] it was 94.5%.
